Each compound was assayed on C3H10T1/2 cells (assay: C3H assay: differentiation of C3H10T1/2 cells by mSHH, measurement of alkaline phosphatase). Details: Mus musculus, C3H 10T1/2; C3H10T1/2 cells stimulated with mSHH for 72 hours; alkaline phosphatase activity; read-out: IC50 Ranges.
Type: cell-based, mouse

SMILES	IC50 [nM]
Cc1ccc(-n2cc(C3CCN(S(=O)(=O)C4CNC4)CC3)c3cccnc32)nc1 [Compound 267, 3-[1-(azetidin-3-ylsulfonyl)piper-idin-4-yl]-1-(5-methylpyridin-2-yl)pyrrolo [2,3-b]pyridine]	1000 to 10000
O=S(=O)(C1CN(c2cccnc2)C1)N1CCC(c2c[nH]c3ncccc23)CC1 [Compound 270, 3-[1-(1-pyridin-3-ylazetidin-3-yl)-sulfonylpiper-idin-4-yl]-1H-pyrrolo[2,3-b]pyridine]	100 to 1000
CN(C(=O)N1CCC(S(=O)(=O)N2CCC(c3c[nH]c4ncccc34)CC2)C1)C(C)(C)C (stereo not shown) [Compound 272, N-tert-butyl-N-methyl-3-[4-(1H-pyrrolo[2,3-b]pyridin-3-yl)piperidin-1-yl]sulfonylpyrr olidine-1-carboxamide]	10 to 100
COc1cccc(NC(=O)N2CC(S(=O)(=O)N3CCC(c4c[nH]c5ncccc45)CC3)C2)c1 [Compound 275, N-(3-methoxyphenyl)-3-[4-(1H-pyrrolo[2,3-b]pyridin-3-yl)piperidin-1-yl]sulfonylaze-tidine-1-carboxamide]	100 to 1000
Cc1ccc(NC(=O)N2CC(S(=O)(=O)N3CCC(c4c[nH]c5ncccc45)CC3)C2)cc1 [Compound 276, N-(4-methylphenyl)-3-[4-(1H-pyrrolo[2,3-b]pyridin-3-yl)piperidin-1-yl]sulfonylaze-tidine-1-carboxamide]	100 to 1000
Cc1ccc(F)cc1NC(=O)N1CC(S(=O)(=O)N2CCC(c3c[nH]c4ncccc34)CC2)C1 [Compound 277, N-(5-fluoro-2-methylphenyl)-3-[4-(1H-pyrrolo[2,3-b]pyridin-3-yl)piperidin-1-yl]sulfonylaze-tidine-1-carboxamide]	10 to 100
COc1cccc(N(C)C(=O)N2CC(S(=O)(=O)N3CCC(c4c[nH]c5ncccc45)CC3)C2)c1 [Compound 279, N-(3-methoxyphenyl)-N-methyl-3-[4-(1H-pyrrolo [2,3-b]pyridin-3-yl)piperidin-1-yl]sulfonylaze-tidine-1-carboxamide]	1000 to 10000
CC(C)(C)OC(=O)N1CC(S(=O)(=O)N2CCC(c3nc4ccccc4s3)CC2)C1 [Compound 283, tert-butyl 3-[4-(1,3-benzothiazol-2-yl)piperidin-1-yl]sulfonylaze-tidine-1-carboxylate]	100 to 1000
O=S(=O)(C1CCC1)N1CCC(c2c[nH]c3ncccc23)CC1 [Compound 287, 3-(1-cyclobutylsulfonylpiperidin-4-yl)-1H-pyrrolo[2,3-b]pyridine]	1000 to 10000
O=C(NC1(C(F)(F)F)CC1)N1CC(S(=O)(=O)N2CCC(c3nc4ccccc4s3)CC2)C1 [Compound 293, 3-[4-(1,3-benzothiazol-2-yl)piperidin-1-yl]sulfonyl-N-[1-(trifluoromethyl)cyclopropyl] azetidine-1-carboxamide]	10 to 100
O=C(NC1(C(F)(F)F)CC1)[C@H]1C[C@@H](S(=O)(=O)N2CCC(c3c[nH]c4ncccc34)CC2)C1 [Compound 297, cis-3-[4-(1H-pyrrolo[2,3-b]pyridin-3-yl)piperidin-1-yl]sulfonyl-N-[1-(trifluoromethyl)cyclopropyl] cyclobutane-1-carboxamide]	10 to 100
CC(C)(C)OC(=O)N1CC(S(=O)(=O)N2CCC(c3nc4ccccc4[nH]3)CC2)C1 [Compound 299, tert-butyl 3-[4-(1H-benzimidazol-2-yl)piperidin-1-yl]sulfonylaze-tidine-1-carboxylate]	1000 to 10000
O=C(NC1(C(F)(F)F)CC1)N1CC(S(=O)(=O)N2CCC(c3nc4ccccc4[nH]3)CC2)C1 [Compound 300, 3-[4-(1H-benzimidazol-2-yl)piperidin-1-yl]sulfonyl-N-[1-(trifluoromethyl)cyclopropyl] azetidine-1-carboxamide]	1000 to 10000
CC(C)(C)OC(=O)N1CC(S(=O)(=O)N2CCC(c3ccccc3)CC2)C1 [Compound 301, tert-butyl 3-(4-phenylpiperidin-1-yl)sulfonylaze-tidine-1-carboxylate]	100 to 1000
Cc1cc(Cl)ccc1C1CCN(S(=O)(=O)C2CN(C(=O)OC(C)(C)C)C2)CC1 [Compound 302, tert-butyl 3-[4-(4-chloro-2-methylphenyl)piperidin-1-yl]sulfonylaze-tidine-1-carboxylate]	100 to 1000
CC(C)(C)OC(=O)N1CC(S(=O)(=O)N2CCC(c3ccc(C#N)cc3)CC2)C1 [Compound 303, tert-butyl 3-[4-(4-cyanophenyl)piperidin-1-yl]sulfonylaze-tidine-1-carboxylate]	100 to 1000
CC(C)(C)OC(=O)N1CC(S(=O)(=O)N2CCC(c3ccc(Cl)cc3)CC2)C1 [Compound 304, tert-butyl 3-[4-(4-chlorophenyl)piperidin-1-yl]sulfonylaze-tidine-1-carboxylate]	100 to 1000
CC(C)N(CC(=O)N1CC(S(=O)(=O)N2CCC(c3ccccc3)CC2)C1)C(C)C [Compound 306, 2-[di(propan-2-yl)amino]-1-[3-(4-phenylpiperidin-1-yl)sulfonylaze-tidin-1-yl]ethanone]	100 to 1000
C[C@@H](C(=O)N1CC(S(=O)(=O)N2CCC(c3ccccc3)CC2)C1)N(C)C [Compound 307, 2-(dimethylamino)-1-[3-(4-phenyl-piperidin-1-yl)sulfonylaze-tidin-1-yl]propan-1-one]	1000 to 10000
O=S(=O)(C1CN(c2nc(-c3ccccc3)cs2)C1)N1CCC(c2c[nH]c3ncccc23)CC1 [Compound 311, 4-phenyl-2-[3-[4-(1H-pyrrolo[2,3-b]pyridin-3-yl)piperidin-1-yl]sulfonylazetidin-1-yl]-1,3-thiazole]	10 to 100
O=S(=O)(C1CN(c2nc3ccccc3s2)C1)N1CCC(c2c[nH]c3ncccc23)CC1 [Compound 312, 2-[3-[4-(1H-pyrrolo[2,3-b]pyridin-3-yl)piperidin-1-yl]sulfonylaze-tidin-1-yl]-1,3-benzothiazole]	10 to 100
CN1CCC[C@H]1C(=O)N1CC(S(=O)(=O)N2CCC(c3ccccc3)CC2)C1 [Compound 315, [(2S)-1-methyl-pyrrolidin-2-yl]-[3-(4-phenylpiperidin-1-yl)sulfonylaze-tidin-1-yl]methanone]	1000 to 10000

Second part, the compound after the results:

IC50 [nM]	SMILES
100 to 1000	O=C(NC1(C(F)(F)F)CC1)N1CC(S(=O)(=O)N2CCC(c3ccncc3)CC2)C1 [Compound 265, 3-(4-pyridin-4-ylpiperidin-1-yl)sulfonyl-N-[1-(trifluoromethyl)-cyclopropyl] azetidine-1-carboxamide]
100 to 1000	O=C(OCC1CCCCC1)N1CC(S(=O)(=O)N2CCC(c3ccncc3)CC2)C1 [Compound 266, cyclohexylmethyl 3-(4-pyridin-4-ylpiperidin-1-yl)sulfonylaze-tidine-1-carboxylate]
1000 to 10000	O=S(=O)(C1CN(c2ccccn2)C1)N1CCC(c2ccncc2)CC1 [Compound 268, 2-[3-(4-pyridin-4-ylpiperidin-1-yl)sulfonylaze-tidin-1-yl]pyridine]
100 to 1000	COC(=O)[C@H]1C[C@@H](S(=O)(=O)N2CCC(c3c[nH]c4ncccc34)CC2)C1 [Compound 273]
10 to 100	CN(C(=O)C1CC(S(=O)(=O)N2CCC(c3c[nH]c4ncccc34)CC2)C1)C(C)(C)C (stereo not shown) [Compound 278, N-tert-butyl-N-methyl-3-[4-(1H-pyrrolo [2,3-b]pyridin-3-yl)piperidin-1-yl]sulfonylcycl obutane-1-carboxamide]
1000 to 10000	O=C(Oc1ccc(F)cc1)N1CC(S(=O)(=O)N2CCC(c3ccncc3)CC2)C1 [Compound 280, (4-fluorophenyl) 3-(4-pyridin-4-ylpiperidin-1-yl) sulfonylaze-tidine-1-carboxylate]
1000 to 10000	COc1cccc(NC(=O)N2CC(S(=O)(=O)N3CCC(c4ccncc4)CC3)C2)c1 [Compound 281, N-(3-methoxyphenyl)-3-(4-pyridin-4-ylpiperidin-1-yl)sulfonylaze-tidine-1-carboxamide]
1000 to 10000	Cc1ccc(NC(=O)N2CC(S(=O)(=O)N3CCC(c4ccncc4)CC3)C2)cc1 [Compound 282, N-(4-methylphenyl)-3-(4-pyridin-4-ylpiperidin-1-yl)sulfonylaze-tidine-1-carboxamide]
1000 to 10000	Cc1ccc(F)cc1NC(=O)N1CC(S(=O)(=O)N2CCC(c3ccncc3)CC2)C1 [Compound 286, N-(5-fluoro-2-methylphenyl)-3-(4-pyridin-4-ylpiperidin-1-yl)sulfonylaze-tidine-1-carboxamide]
10 to 100	CN(C(=O)[C@H]1C[C@@H](S(=O)(=O)N2CCC(c3c[nH]c4ncccc34)CC2)C1)C(C)(C)C [Compound 289, cis-N-tert-butyl-N-methyl-3-[[4-(1H-pyrrolo[2,3-b]pyridin-3-yl)-1-piperidyl]sulfonyl]cyclobutanecarboxamide]
100 to 1000	CN(C(=O)[C@H]1C[C@H](S(=O)(=O)N2CCC(c3c[nH]c4ncccc34)CC2)C1)C(C)(C)C [Compound 290, trans-N-tert-butyl-N-methyl-3-[[4-(1H-pyrrolo[2,3-b]pyridin-3-yl)-1-piperidyl]sulfonyl]cyclobutanecarboxamide]
1000 to 10000	O=C(NCCS(=O)(=O)N1CCC(c2ccncc2)CC1)OC1CCCCC1 [Compound 291, cyclohexyl N-[2-(4-pyridin-4-ylpiperidin-1-yl)sulfonylethyl] carbamate]
1000 to 10000	Cc1noc(C)c1NC(=O)[C@H]1C[C@@H](S(=O)(=O)N2CCC(c3ccncc3)CC2)C1 [Compound 295, cis-N-(3,5-dimethyl-1,2-oxazol-4-yl)-3-(4-pyridin-4-ylpiperidin-1-yl) sulfonylcyclobutane-1-carboxamide]
10 to 100	Cc1noc(C)c1NC(=O)[C@H]1C[C@@H](S(=O)(=O)N2CCC(c3c[nH]c4ncccc34)CC2)C1 [Compound 309, cis-N-(3,5-dimethyl-1,2-oxazol-4-yl)-3-[4-(1H-pyrrolo [2,3-b]pyridin-3-yl)piperidin-1-yl]sulfonylcycl obutane-1-carboxamide]
100 to 1000	Cc1noc(C)c1NC(=O)[C@H]1C[C@H](S(=O)(=O)N2CCC(c3c[nH]c4ncccc34)CC2)C1 [Compound 310, trans-N-(3,5-dimethyl-1,2-oxazol-4-yl)-3-[4-(1H-pyrrolo [2,3-b]pyridin-3-yl)piperidin-1-yl]sulfonylcycl obutane-1-carboxamide]
